Measurements as given in publication PMC9266530 (International Journal of Molecular Sciences, 2022).
Where “and” joins values, the source holds several entries; their conditions need not be identical. Equal entries are not always repeated. Where two headings read alike, the source gives them in different places.

Experiments:
CYP3A4 [1] = biological target: T1, CYP3A4 (Homo sapiens, UniProt P08684); test: Stopped-flow kinetics of ligand binding; conditions: for Percentage of the absorbance change taking place during the fast kinetic phase: ligand-binding reaction; for kfast: rate constant for the fast kinetic phase of the ligand-binding reaction
T1 construct: The full-length protein was used for assays and the truncated form was used for crystallization; made in house
Protocol: Kinetics of Ligand Binding—The kinetics of ligand binding to CYP3A4 were measured at 427 nm in an SX.18MV stopped-flow apparatus (Applied Photophysics, UK), as previously described.
Target sequence in this assay (P08684 whole entry, the tested form may be a part): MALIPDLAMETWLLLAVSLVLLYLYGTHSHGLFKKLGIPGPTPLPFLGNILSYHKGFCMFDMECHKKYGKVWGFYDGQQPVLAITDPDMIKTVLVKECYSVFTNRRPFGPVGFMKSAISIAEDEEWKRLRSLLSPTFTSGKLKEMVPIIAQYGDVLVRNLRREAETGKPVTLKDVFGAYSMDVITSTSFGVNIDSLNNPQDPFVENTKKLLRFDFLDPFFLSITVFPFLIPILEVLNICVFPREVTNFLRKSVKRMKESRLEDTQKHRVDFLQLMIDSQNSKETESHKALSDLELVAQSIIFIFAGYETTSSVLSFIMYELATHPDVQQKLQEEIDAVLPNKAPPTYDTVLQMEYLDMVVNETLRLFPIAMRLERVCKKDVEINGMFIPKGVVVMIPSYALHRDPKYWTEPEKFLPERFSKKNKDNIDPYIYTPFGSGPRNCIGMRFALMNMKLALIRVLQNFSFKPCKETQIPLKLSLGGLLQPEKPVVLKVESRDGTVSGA

CYP3A4 [2] = biological target: T1, CYP3A4; test: H2O2-dependent heme depletion (heme bleaching) assay; conditions: for Heme Destroyed: 10 mM H2O2, 2 h, relative to ligand-free CYP3A4 = 100%; for kH2O2: rate constant for the H2O2-dependent heme-bleaching reaction, 10 mM H2O2, 16 μM inhibitor
Protocol: H2O2-dependent heme depletion assay—Heme bleaching in ligand-free and inhibitor-bound CYP3A4 (1.6 μM) was monitored at 23 °C in 0.1 M phosphate buffer, pH 7.4. After 10 min of preincubation of CYP3A4 with 16 μM inhibitors, heme decay was initiated by the addition of 10 mM H2O2 (final concentration) and monitored at 420 nm for 2 h. The percentage of heme destroyed was calculated relative to that in ligand-free CYP3A4, considered as 100% decay.
Target sequence in this assay (P08684 whole entry, the tested form may be a part): as above

CYP3A4 [3] = biological target: T1, CYP3A4; conditions: BFC debenzylation activity, same method as in this study; previously reported analogues; cited from earlier work
Target sequence in this assay (P08684 2-503): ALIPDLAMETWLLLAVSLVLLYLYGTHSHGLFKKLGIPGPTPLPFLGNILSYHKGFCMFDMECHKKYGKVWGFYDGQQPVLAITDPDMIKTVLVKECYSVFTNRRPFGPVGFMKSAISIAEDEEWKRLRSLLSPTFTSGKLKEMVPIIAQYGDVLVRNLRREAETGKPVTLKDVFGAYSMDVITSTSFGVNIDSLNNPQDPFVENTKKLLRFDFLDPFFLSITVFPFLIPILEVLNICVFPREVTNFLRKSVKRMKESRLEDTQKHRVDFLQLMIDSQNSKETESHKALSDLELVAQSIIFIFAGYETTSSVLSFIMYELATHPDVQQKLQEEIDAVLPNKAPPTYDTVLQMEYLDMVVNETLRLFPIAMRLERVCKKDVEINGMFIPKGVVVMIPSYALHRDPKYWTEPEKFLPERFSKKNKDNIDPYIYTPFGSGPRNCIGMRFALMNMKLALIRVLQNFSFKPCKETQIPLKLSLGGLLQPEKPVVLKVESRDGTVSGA

CYP3A4 [4] = biological target: T1, CYP3A4; conditions: previously reported analogues; cited from earlier work
Target sequence in this assay (P08684 whole entry, the tested form may be a part): as the sequence (P08684 whole entry, the tested form may be a part) above

CYP3A4 [5] = biological target: T1, CYP3A4; test: Spectral binding titrations (equilibrium ligand binding, type II spectral change); conditions: for Kd: 23 °C, 0.1 M phosphate pH 7.4, quadratic fits to titration plots, read-out: Ks (spectral dissociation constant); for λmax Ferric: ferric ligand-bound CYP3A4; for ΔAmax: maximal absorbance change (peak-to-trough in difference spectrum) relative to that induced by ritonavir; for A421/417: ratio between absorption maxima of ferric ligand-bound and ligand-free CYP3A4; for λmax Ferrous: ferrous ligand-bound CYP3A4
Protocol: Spectral Binding Titrations—Equilibrium ligand binding to CYP3A4 was monitored using a Cary 300 spectrophotometer at 23 °C in 0.1 M phosphate buffer, pH 7.4, supplemented with 20% glycerol and 1 mM dithiothreitol. Inhibitors were dissolved in dimethyl sulfoxide (DMSO) and added to a 2 μM protein solution in small aliquots, with the final solvent concentration of <2%. The spectral dissociation constant (Ks) was determined from quadratic fits to the titration plots.
Target sequence in this assay (P08684 whole entry, the tested form may be a part): as above

CYP3A4 [6] = biological target: T1, CYP3A4; test: Inhibitory potency for the BFC O-debenzylase activity in a soluble reconstituted system; format: biochemical; conditions: for IC50: BFC debenzylase activity, soluble reconstituted system with cytochrome P450 reductase
Protocol: Inhibitory Potency Assays—The inhibitory potency for the BFC O-debenzylase activity of CYP3A4 was evaluated fluorometrically in a soluble reconstituted system, and the IC50 values were derived from the [% activity] vs. [inhibitor] plots, as described in detail elsewhere.
Target sequence in this assay (P08684 2-503): as the sequence (P08684 2-503) above

CYP3A4 [7] = biological target: T1, CYP3A4; test: Thermal denaturation (ligand-dependent change in melting temperature); format: binding; conditions: purified CYP3A4 protein solution, pH 7.4, ligand-dependent change in melting temperature of CYP3A4, 1 μM protein, 20 μM ligand
Protocol: Thermal Denaturation—Melting curves were recorded in 0.1 M phosphate buffer, pH 7.4, using a Cary 300 spectrophotometer. Protein (1 μM) was mixed with a ligand (20 μM) and incubated for 15 min at 23 °C. Protein denaturation was monitored at 260 nm using a 0.2 °C measurement step, 0.9 °C/min ramp rate, and 50–75 °C temperature range. The denaturation midpoint (melting temperature; Tm) was determined from non-linear fittings to the melting curve, as described earlier.
Target sequence in this assay (P08684 whole entry, the tested form may be a part): as the sequence (P08684 whole entry, the tested form may be a part) above

CYP3A4 [8] = biological target: T1, CYP3A4; conditions: previously reported analogues; read-out: Ks; cited from earlier work
Target sequence in this assay (P08684 whole entry, the tested form may be a part): as above

recombinant CYP3A5 = recombinant CYP3A5 (Homo sapiens, UniProt P20815); test: Inhibitory potency against recombinant CYP3A5; format: biochemical; conditions: read-out: IC50 estimates
Chain of recombinant CYP3A5 (P20815 whole entry): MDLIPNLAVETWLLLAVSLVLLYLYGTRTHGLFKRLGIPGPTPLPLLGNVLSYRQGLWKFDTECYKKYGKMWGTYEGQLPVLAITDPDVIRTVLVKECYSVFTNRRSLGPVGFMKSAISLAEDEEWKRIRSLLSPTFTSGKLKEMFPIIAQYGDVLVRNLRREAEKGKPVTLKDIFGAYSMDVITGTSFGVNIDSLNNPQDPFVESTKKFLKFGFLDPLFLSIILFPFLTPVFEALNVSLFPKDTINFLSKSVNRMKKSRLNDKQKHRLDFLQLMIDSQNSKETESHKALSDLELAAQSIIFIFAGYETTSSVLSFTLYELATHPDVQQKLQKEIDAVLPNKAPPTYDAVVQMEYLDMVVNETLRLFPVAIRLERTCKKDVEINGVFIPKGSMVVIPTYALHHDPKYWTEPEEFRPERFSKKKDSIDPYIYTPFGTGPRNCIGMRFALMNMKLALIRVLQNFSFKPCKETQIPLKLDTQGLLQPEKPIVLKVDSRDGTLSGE
Text: Thus, one optimization strategy would be the R3 enlargement and branching. […] Our analogues lack the backbone hydroxyl as well, but contain much smaller/chemically simpler end-groups.

Percentage of the absorbance change taking place during the fast kinetic phase (CYP3A4 [1]) | kfast (CYP3A4 [1]) | Heme Destroyed (CYP3A4 [2]) | kH2O2 (CYP3A4 [2]) | Kd (CYP3A4 [5]; 2 μM protein) | λmax Ferric (CYP3A4 [5]) | ΔAmax (CYP3A4 [5]) | A421/417 (CYP3A4 [5]) | IC50 (CYP3A4 [6]) | ΔTm at 15 min, 20 μM (CYP3A4 [7]) | λmax Ferrous (CYP3A4 [5]) | SMILES | also measured
34% | 22.5 ± 3.1 s⁻¹ | 22% and 22 ± 3% | 0.31 ± 0.04 10^3 × min^−1 | 34 ± 5 nM | 422 nm | 105% | 1.07 | 310 ± 30 nM | 5.2 °C | 443 nm | CC(C)(C)OC(=O)N[C@H](CS[C@H](Cc1ccccc1)C(=O)NCc1ccncc1)Cc1ccccc1 [Compound 5a] | fold improvement in binding affinity relative to 4f (CYP3A4 [5]; relative to 4f): 2.2 fold; fold improvement in inhibitory potency relative to 4f (CYP3A4 [6]; relative to 4f): 1.3 fold
31% | 18.2 ± 1.8 s⁻¹ | 22% and 22 ± 2% | 0.31 ± 0.03 10^3 × min^−1 | 14 ± 2 nM | 423 nm | 126% | 1.06 | 160 ± 20 nM | 5 °C | 443 nm | CC(C)(C)OC(=O)N[C@H](CS[C@H](Cc1ccccc1)C(=O)NCCc1ccncc1)Cc1ccccc1 [Compound 5b] | IC50 (recombinant CYP3A5): 180 to 200 nM
26% | 10.3 s⁻¹ and 10.3 ± 1.2 s⁻¹ | 39 ± 4% | 0.66 ± 0.10 10^3 × min^−1 | 120 ± 10 nM | 421 nm | 96% | 1.03 | 600 ± 40 nM | 3.6 °C | 443 nm | O=C(Cc1cccnc1)N[C@H](CS[C@H](Cc1ccccc1)C(=O)NCc1cccnc1)Cc1ccccc1 [Compound 8a] | –
24% | 5.6 s⁻¹ and 5.6 ± 0.6 s⁻¹ | 32 ± 3% | 0.44 ± 0.06 10^3 × min^−1 | 53 ± 9 nM | 421 nm | 109% | 1.03 | 820 ± 90 nM | 4.2 °C | 443 nm | O=C(CCc1cccnc1)N[C@H](CS[C@H](Cc1ccccc1)C(=O)NCCc1cccnc1)Cc1ccccc1 [Compound 8b] | increase in Ks relative to 4f (CYP3A4 [5]; relative to 4f): ~ 20%; increase in IC50 relative to 4f (CYP3A4 [6]; relative to 4f): ~ 20%
– | – | 24 ± 2% | 0.32 ± 0.03 10^3 × min^−1 | – | – | – | – | 210 ± 30 nM | – | – | O=C(CCc1cccnc1)N[C@H](CS[C@@H](Cc1ccccc1)C(=O)NCCc1cccnc1)Cc1ccccc1 [Compound 8c] | IC50 (recombinant CYP3A5): 180 to 200 nM
30% | 15.4 ± 1.8 s⁻¹ | 13 ± 2% | 0.17 ± 0.02 10^3 × min^−1 | 8 ± 1 nM | 422 nm | 111% | 1.11 | 150 ± 20 nM | 7.2 °C | 444 nm | O=C(N[C@H](CS[C@H](Cc1ccccc1)C(=O)NCCCc1cccnc1)Cc1ccccc1)c1cccnc1 [Compound 10a] | improvement in heme protection relative to 3a (CYP3A4 [2]; relative to the Boc-containing 3a): 5%; IC50 (recombinant CYP3A5): 180 to 200 nM
29% | 13.7 ± 1.5 s⁻¹ | 19 ± 3% | 0.24 ± 0.03 10^3 × min^−1 | 9 ± 1 nM | 422 nm | 110% | 1.10 | – | 7.3 °C | 443 nm | O=C(CNC(=O)c1cccnc1)N[C@H](CS[C@H](Cc1ccccc1)C(=O)NCCCc1cccnc1)Cc1ccccc1 [Compound 10b] | Kd (CYP3A4 [5]; human, purified CYP3A4 protein solution, pH 7.4, 2 μM protein): 8 to 9 nM; IC50 (CYP3A4 [6]; human, probe BFC (O-debenzylation)): 210 ± 20 nM

Continued, molecule first:

SMILES | Percentage of the absorbance change taking place during the fast kinetic phase (CYP3A4 [1]) | kfast (CYP3A4 [1]) | Heme Destroyed (CYP3A4 [2]) | kH2O2 (CYP3A4 [2]) | Kd (CYP3A4 [5]; 2 μM protein) | λmax Ferric (CYP3A4 [5]) | ΔAmax (CYP3A4 [5]) | A421/417 (CYP3A4 [5]) | IC50 (CYP3A4 [6]) | ΔTm at 15 min, 20 μM (CYP3A4 [7]) | λmax Ferrous (CYP3A4 [5]) | also measured
CC(C)(C)OC(=O)N[C@H](CS[C@H](Cc1ccccc1)C(=O)NCCCc1cccnc1)Cc1ccccc1 [Compound 3a, reference compound] | 36% | 12.5 ± 1.3 s⁻¹ | 18% and 18 ± 2% | 0.21 ± 0.03 10^3 × min^−1 | – | – | – | – | – | – | – | IC50 (CYP3A4 [3]): 160 nM; ΔTm (CYP3A4 [4]): 8.1 °C
CC(C)(C)OC(=O)N[C@H](CS[C@H](Cc1ccccc1)C(=O)NCC(=O)Nc1cccnc1)Cc1ccccc1 [Compound 4] | 27% | 13.8 s⁻¹ and 13.8 ± 1.5 s⁻¹ | 44 ± 5% | 0.70 ± 0.08 10^3 × min^−1 | 1360 ± 120 nM | 421 nm | 98% | 0.99 | 1600 ± 200 nM | 1.9 °C | – | fold increase in Ks relative to 3a (CYP3A4 [5]; relative to 3a): 100 fold; fold increase in IC50 relative to 3a (CYP3A4 [6]; BFC O-debenzylase activity, relative to 3a): 10 fold
CC(C)(C)OC(=O)N[C@H](CS[C@H](Cc1ccccc1)C(=O)NCc1cccnc1)Cc1ccccc1 [Compound 4b, reference compound] | 31% | 13.2 ± 1.8 s⁻¹ | 39 ± 5% | 0.64 ± 0.07 10^3 × min^−1 | – | – | – | – | – | – | – | Kd (CYP3A4 [8]): 63 nM; IC50 (CYP3A4 [3]): 1190 nM
CC(C)(C)OC(=O)N[C@H](CS[C@H](Cc1ccccc1)C(=O)NCCc1cccnc1)Cc1ccccc1 [Compound 4f, reference compound] | 32% | 11.4 ± 1.4 s⁻¹ | 37% and 37 ± 4% | 0.60 ± 0.08 10^3 × min^−1 | – | – | – | – | – | – | – | ΔTm (CYP3A4 [4]): 4.2 °C
CC(C)(C)OC(=O)N[C@H](CS[C@@H](Cc1ccccc1)C(=O)NCCc1cccnc1)Cc1ccccc1 [Compound 4h, reference compound] | 28% | 13.8 ± 2.0 s⁻¹ | 22 ± 3% | 0.32 ± 0.03 10^3 × min^−1 | – | – | – | – | – | – | – | –
